# Measured values published in patent US20200315540A1, “TREATMENT OF A DISEASE OF THE GASTROINTESTINAL TRACT WITH AN IL-1 INHIBITOR” (Progenity, Inc., priority 2016, published 2020).
# Experiment: Tissue, plasma and GI content pharmacokinetics of tacrolimus, oral vs intra-cecal ingestible device delivery in swine
# Type: in vivo
# Conditions: intra-cecally vs orally administered, 12 hours post-dose, FIG. 76
# Experimental: No further randomization procedure was employed.
# Animals in Group 1 received an ingestible device containing 0.8 mL of vehicle solution (80% alcohol, 20% HCO-60). Animals in Group 2 received orally […] liquid formulation of tacrolimus at 4 mg/0.8 mL per animal (Prograf: 5 mg/mL). Animals in Group 3 received intra-cecally an ingestible device containing tacrolimus at 1 mg in 0.8 mL per ingestible device. Animals in Group 4 received intra-cecally an ingestible device containing tacrolimus at 2 mg in 0.8 mL per ingestible device. Animals in Group 5 received intra-cecally an ingestible device containing tacrolimus at 4 mg in 0.8 mL per ingestible device. […]
# Approximately 200˜400 mg of rectal content were collected, if available, with a fecal swab (Copan Diagnostics Nylon Flocked Dry Swabs, 502CS01). The fecal swab was pre-weighed and weighed after collection in the collection tube (Sterile Tube and Cap No Media, PFPM913S), and the sample weight was recorded. […]
# For tissue necropsy, small intestine fluid and cecal fluid were collected separately from all the animals into two separate square plastic bottles, and stored at −20° C. The length and diameter of the cecum and the colon was measured from one animal in each group and recorded for reference. […] All samples were weighed, and the tissue sample weights were recorded. […]
smiles,measurement,value
C=CC[C@@H]1/C=C(\C)C[C@H](C)C[C@H](OC)[C@H]2O[C@@](O)(C(=O)C(=O)N3CCCC[C@H]3C(=O)O[C@H](/C(C)=C/[C@@H]3CC[C@@H](O)[C@H](OC)C3)[C@H](C)[C@@H](O)CC1=O)[C@H](C)C[C@@H]2OC [tacrolimus],mean concentration in the cecum tissue and the proximate colon tissue,higher
